Measurements from patent publication US20260297080A1, “BICYCLIC COMPOUNDS AS CDK INHIBITORS” (BeOne Medicines I GmbH, priority 2022, published 2026).

Tests used:
CDK2/Cyclin E1 = CDK2/Cyclin E1 (Homo sapiens, UniProt P24941); assay: CDK2/Cyclin E1 Biochemical Assay (TR-FRET), 0.060 mM ATP; conditions: 0.15 μM Rb (Ser780)-biotin substrate, pH7.0, 60 min preincubation, 120 min reaction, room temperature
Outline: (§1)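 Inhibitor concentrations up to 10 μM were preincubated with each cyclin–kinase complex for 60 minutes before ATP and biotinylated Rb (Ser780) substrate (0.15 μM) were added. After 120 minutes at room temperature, phosphorylation was quantified by HTRF and IC50 values were fitted with a four-parameter logistic equation.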

CDK1/Cyclin B1 = CDK1/Cyclin B1 (Homo sapiens, UniProt P06493); assay: CDK1/Cyclin B1 Biochemical Assay (TR-FRET), 0.015 mM ATP; conditions: 0.15 μM Rb (Ser780)-biotin substrate, pH7.0, 60 min preincubation, 120 min reaction, room temperature
Outline: as §1

CDK1/Cyclin B1, sequence (P06493 whole entry): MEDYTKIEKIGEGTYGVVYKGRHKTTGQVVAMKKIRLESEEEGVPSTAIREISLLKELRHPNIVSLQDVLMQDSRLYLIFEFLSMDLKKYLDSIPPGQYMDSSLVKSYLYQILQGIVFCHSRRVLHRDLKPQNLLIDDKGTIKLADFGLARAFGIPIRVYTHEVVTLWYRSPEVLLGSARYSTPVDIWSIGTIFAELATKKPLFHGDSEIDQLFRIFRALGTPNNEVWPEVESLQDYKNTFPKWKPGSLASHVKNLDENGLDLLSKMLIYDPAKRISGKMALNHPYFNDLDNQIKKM
CDK1/Cyclin B1, sequence (P14635 whole entry partner): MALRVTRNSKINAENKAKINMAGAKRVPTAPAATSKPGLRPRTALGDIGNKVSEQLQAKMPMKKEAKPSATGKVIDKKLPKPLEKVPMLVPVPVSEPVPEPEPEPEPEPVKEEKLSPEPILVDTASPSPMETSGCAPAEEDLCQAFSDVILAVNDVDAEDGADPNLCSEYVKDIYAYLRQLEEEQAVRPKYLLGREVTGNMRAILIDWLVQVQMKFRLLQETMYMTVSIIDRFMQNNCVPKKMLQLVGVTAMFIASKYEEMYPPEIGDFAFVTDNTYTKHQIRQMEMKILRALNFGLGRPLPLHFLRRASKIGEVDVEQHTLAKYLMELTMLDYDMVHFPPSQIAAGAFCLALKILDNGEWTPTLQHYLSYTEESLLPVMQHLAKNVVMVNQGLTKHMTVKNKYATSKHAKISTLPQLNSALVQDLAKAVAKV

| SMILES | IC50 (CDK2/Cyclin E1) | IC50 (CDK1/Cyclin B1) |
| --- | --- | --- |
| CC(C)NC(=O)O[C@H]1CC[C@@H](c2cc(Nc3ccc4c(c3F)CN(CCN3CCOCC3)S4(=O)=O)n[nH]2)C1 (relative stereo) [Example 112, cis-3-(3-((4-fluoro-2-(2-morpholinoethyl)-1,1-dioxido-2,3-dihydrobenzo[d]isothiazol-5-yl)amino)-1H-pyrazol-5-yl)cyclopentyl isopropylcarbamate] | 6.3 nM | 458 nM |
| COc1c(Nc2cc([C@@H]3CC[C@H](OC(=O)NC(C)C)C3)[nH]n2)ccc2c1CNS2(=O)=O (relative stereo) [Example 10, cis-3-(3-((4-methoxy-1,1-dioxido-2,3-dihydrobenzo[d]isothiazol-5-yl)amino)-1H-pyrazol-5-yl)cyclopentyl isopropylcarbamate] | 102 nM | 3020 nM |
| CN1c2ccc(Nc3cc([C@@H]4CC[C@H](OC(=O)N[C@H]5CC[C@@H](O)CC5)C4)[nH]n3)cc2CS1(=O)=O (relative stereo) [Example 341, cis-3-(3-((1-methyl-2,2-dioxido-1,3-dihydrobenzo[c]isothiazol-5-yl)amino)-1H-pyrazol-5-yl)cyclopentyl((1s,4s)-4-hydroxycyclohexyl)carbamate] | 4.7 nM | 77 nM |
| CC(C)NC(=O)O[C@H]1CC[C@@H](c2cc(Nc3ccc4c(c3F)CN(C3CCCNC3=O)S4(=O)=O)n[nH]2)C1 (relative stereo) [Example 86, cis-3-(3-((4-fluoro-1,1-dioxido-2-(2-oxopiperidin-3-yl)-2,3-dihydrobenzo[d]isothiazol-5-yl)amino)-1H-pyrazol-5-yl)cyclopentyl isopropylcarbamate] | 7.8 nM | 735 nM |
| CC(C)NC(=O)O[C@H]1CC[C@@H](c2cc(Nc3cc4c(cc3F)S(=O)(=O)N(C(C)C)C4)n[nH]2)C1 (relative stereo) [Example 49, cis-3-(3-((6-fluoro-2-isopropyl-1,1-dioxido-2,3-dihydrobenzo[d]isothiazol-5-yl)amino)-1H-pyrazol-5-yl)cyclopentyl isopropylcarbamate] | 758 nM | > 10000 nM |
| CC(C)NC(=O)O[C@H]1CC[C@@H](c2cc(Nc3ccc4c(c3F)CN(C3CCNC3=O)S4(=O)=O)n[nH]2)C1 (relative stereo) [Example 79, cis-3-(3-((4-fluoro-1,1-dioxido-2-(2-oxopyrrolidin-3-yl)-2,3-dihydrobenzo[d]isothiazol-5-yl)amino)-1H-pyrazol-5-yl)cyclopentyl isopropylcarbamate] | 8.3 nM | 638 nM |
| CCCNC(=O)O[C@H]1CC[C@@H](c2cc(Nc3cc4c(cc3F)N(CCO)S(=O)(=O)C4)n[nH]2)C1 (relative stereo) [Example 297, cis-3-(3-((6-fluoro-1-(2-hydroxyethyl)-2,2-dioxido-1,3-dihydrobenzo[c]isothiazol-5-yl)amino)-1H-pyrazol-5-yl)cyclopentyl propylcarbamate] | 38 nM | 607 nM |
| CCCNC(=O)O[C@H]1CC[C@@H](c2cc(Nc3cc4c(cc3F)S(=O)(=O)NC4)n[nH]2)C1 (single isomer, unassigned) [Example 42a, cis-3-(3-((6-fluoro-1,1-dioxido-2,3-dihydrobenzo[d]isothiazol-5-yl)amino)-1H-pyrazol-5-yl)cyclopentyl propylcarbamate] | 14 nM | 891 nM |
| C[C@@H](CO)NC(=O)O[C@H]1CC[C@@H](c2cc(Nc3ccc4c(c3F)CNS4(=O)=O)n[nH]2)C1 (single isomer, unassigned) [Example 328b] | 31 nM | 1970 nM |
| [2H]C([2H])([2H])N1c2ccc(Nc3cc([C@@H]4CC[C@H](OC(=O)NCCC)C4)[nH]n3)c(F)c2CS1(=O)=O (single isomer, unassigned) [Example 268a, cis-3-(3-((4-fluoro-1-(methyl-d3)-2,2-dioxido-1,3-dihydrobenzo[c]isothiazol-5-yl)amino)-1H-pyrazol-5-yl)cyclopentyl propylcarbamate] | 14 nM | 285 nM |
| CN1c2ccc(Nc3cc([C@@H]4CC[C@H](OC(=O)NC5CC6(CCC6)C5)C4)[nH]n3)cc2CS1(=O)=O (relative stereo) [Example 224, cis-3-(3-((1-methyl-2,2-dioxido-1,3-dihydrobenzo[c]isothiazol-5-yl)amino)-1H-pyrazol-5-yl)cyclopentyl spiro[3.3]heptan-2-ylcarbamate] | 29 nM | 2580 nM |
| CC(C)NC(=O)O[C@H]1CC[C@@H](c2cc(Nc3ccc4c(c3F)C(C)NS4(=O)=O)n[nH]2)C1 (single isomer, unassigned) [Example 51d, cis-3-(3-((4-fluoro-3-methyl-1,1-dioxido-2,3-dihydrobenzo[d]isothiazol-5-yl)amino)-1H-pyrazol-5-yl)cyclopentyl isopropylcarbamate] | 8.7 nM | 447 nM |

The next molecules have a lower IC50 (CDK2/Cyclin E1) than those just listed; values first:

| IC50 (CDK2/Cyclin E1) | IC50 (CDK1/Cyclin B1) | SMILES |
| --- | --- | --- |
| 3.6 nM | 288 nM | CC(C)NC(=O)O[C@H]1CC[C@@H](c2cc(Nc3ccc4c(c3F)CN(CCCO)S4(=O)=O)n[nH]2)C1 (relative stereo) [Example 113, cis-3-(3-((4-fluoro-2-(3-hydroxypropyl)-1,1-dioxido-2,3-dihydrobenzo[d]isothiazol-5-yl)amino)-1H-pyrazol-5-yl)cyclopentyl isopropylcarbamate] |
| 3.4 nM | 103 nM | CCCNC(=O)O[C@H]1CC[C@@H](c2cc(Nc3ccc4c(c3F)CS(=O)(=O)N4C3COC3)n[nH]2)C1 (single isomer, unassigned) [Example 260b, cis-3-(3-((4-fluoro-1-(oxetan-3-yl)-2,2-dioxido-1,3-dihydrobenzo[c]isothiazol-5-yl)amino)-1H-pyrazol-5-yl)cyclopentyl propylcarbamate] |
| 3.4 nM | 64 nM | O=C(NC1CCCC1)O[C@H]1CC[C@@H](c2cc(Nc3ccc4c(c3F)CS(=O)(=O)N4)n[nH]2)C1 (single isomer, unassigned) [Example 400b] |
| 3.3 nM | 82 nM | CC(C)NC(=O)O[C@H]1CC[C@@H](c2cc(Nc3ccc4c(c3F)C(C)NS4(=O)=O)n[nH]2)C1 (single isomer, unassigned) [Example 51b, cis-3-(3-((4-fluoro-3-methyl-1,1-dioxido-2,3-dihydrobenzo[d]isothiazol-5-yl)amino)-1H-pyrazol-5-yl)cyclopentyl isopropylcarbamate] |
| 3.1 nM | 30 nM | CC(C)NC(=O)O[C@H]1CC[C@@H](c2cc(Nc3ccc4c(c3)CS(=O)(=O)N4CCCO)n[nH]2)C1 (relative stereo) [Example 215, cis-3-(3-((1-(3-hydroxypropyl)-2,2-dioxido-1,3-dihydrobenzo[c]isothiazol-5-yl)amino)-1H-pyrazol-5-yl)cyclopentyl isopropylcarbamate] |
| 3.1 nM | 408 nM | CC1(NC(=O)O[C@H]2CC[C@@H](c3cc(Nc4ccc5c(c4F)CNS5(=O)=O)n[nH]3)C2)CCOC1 (single isomer, unassigned) [Example 162c, cis-3-(3-((4-fluoro-1,1-dioxido-2,3-dihydrobenzo[d]isothiazol-5-yl)amino)-1H-pyrazol-5-yl)cyclopentyl(3-methyltetrahydrofuran-3-yl)carbamate] |
| 3 nM | 137 nM | CCCNC(=O)O[C@@H]1CC[C@H](c2cc(Nc3ccc4c(c3F)CS(=O)(=O)N4)n[nH]2)C1 (single isomer, unassigned) [Example 387a] |
| 2.7 nM | 41 nM | CCCNC(=O)O[C@H]1CC[C@@H](c2cc(Nc3ccc4c(c3F)S(=O)(=O)NC4)n[nH]2)C1 (single isomer, unassigned) [Example 189b, cis-3-(3-((7-fluoro-1,1-dioxido-2,3-dihydrobenzo[d]isothiazol-6-yl)amino)-1H-pyrazol-5-yl)cyclopentyl propylcarbamate] |
| 2.2 nM | 206 nM | [2H]C([2H])([2H])N1Cc2c(ccc(Nc3cc([C@@H]4CC[C@H](OC(=O)NC5(C)CC5)C4)[nH]n3)c2F)S1(=O)=O (single isomer, unassigned) [Example 132a, cis-3-(3-((4-fluoro-2-(methyl-d3)-1,1-dioxido-2,3-dihydrobenzo[d]isothiazol-5-yl)amino)-1H-pyrazol-5-yl)cyclopentyl(1-methylcyclopropyl)carbamate] |
| 1.9 nM | 176 nM | CC[C@H](C)NC(=O)O[C@H]1CC[C@@H](c2cc(Nc3ccc4c(c3F)CN(CCO)S4(=O)=O)n[nH]2)C1 (relative stereo) [Example 127, cis-3-(3-((4-fluoro-2-(2-hydroxyethyl)-1,1-dioxido-2,3-dihydrobenzo[d]isothiazol-5-yl)amino)-1H-pyrazol-5-yl)cyclopentyl((S)-sec-butyl)carbamate] |
| 1.6 nM | 23 nM | CN1c2ccc(Nc3cc([C@@H]4CC[C@H](OC(=O)NC(C)(C)CO)C4)[nH]n3)cc2CS1(=O)=O (single isomer, unassigned) [Example 325a, cis-3-(3-((1-methyl-2,2-dioxido-1,3-dihydrobenzo[c]isothiazol-5-yl)amino)-1H-pyrazol-5-yl)cyclopentyl(1-hydroxy-2-methylpropan-2-yl)carbamate] |
| 1.5 nM | 41 nM | CCCNC(=O)O[C@H]1CC[C@@H](c2cc(Nc3ccc4c(c3)CNS4(=O)=O)n[nH]2)C1 (relative stereo) [Example 178, cis-3-(3-((1,1-dioxido-2,3-dihydrobenzo[d]isothiazol-5-yl)amino)-1H-pyrazol-5-yl)cyclopentyl propylcarbamate] |
| 1.1 nM | 17 nM | CC1NS(=O)(=O)c2ccc(Nc3cc([C@@H]4CC[C@H](OC(=O)NC5(C)CC5)C4)[nH]n3)cc21 (single isomer, unassigned) [Example 322a, cis-3-(3-((3-methyl-1,1-dioxido-2,3-dihydrobenzo[d]isothiazol-5-yl)amino)-1H-pyrazol-5-yl)cyclopentyl(1-methylcyclopropyl)carbamate] |
